{"source": "ChEMBL document CHEMBL3997820", "about": "“Synthesis and evaluation of anticonvulsant properties of new N-Mannich bases derived from pyrrolidine-2,5-dione and its 3-methyl-, 3-isopropyl, and 3-benzhydryl analogs” (Bioorg Med Chem Lett, 2017)", "key": {"[1]": {"assay": "Neurotoxicity in ip dosed albino CD1 mouse assessed as motor impairment by rotarod test", "format": "toxicity, organism-based", "settings": "in vivo"}, "[2]": {"system": "Mus musculus", "assay": "Anticonvulsant activity in ip dosed albino CD1 mouse assessed as protection against maximal electroshock-induced seizures by measuring time to peak effect", "format": "functional"}, "[3]": {"organism": "Rattus norvegicus", "assay": "Inhibition of [3H]-BTX binding to voltage-sensitive Na+ channel site 2 in Sprague-Dawley rat cerebral cortex synaptoneurosomes at 100 uM after 60 mins by liquid scintillation spectroscopic method relative to control"}, "[4]": {"system": "Mus musculus", "assay": "Anticonvulsant activity in ip dosed albino CD1 mouse assessed as protection against subcutaneous pentylenetetrazole-induced seizures by measuring time to peak effect", "format": "functional"}, "[5]": {"system": "Mus musculus", "assay": "Anticonvulsant activity in albino CD1 mouse assessed as protection against subcutaneous pentylenetetrazole-induced seizures at 300 mg/kg, ip measured after 0.5 hrs", "format": "functional, organism-based"}, "[6]": {"system": "Mus musculus", "assay": "Neurotoxicity in ip dosed albino CD1 mouse assessed as minimum dose required to induce motor impairment in half and more mouse measured after 0.5 hrs by rotarod test", "format": "toxicity, organism-based", "settings": "in vivo"}, "[7]": {"system": "Mus musculus", "assay": "Anticonvulsant activity in albino CD1 mouse assessed as protection against 32 mA current-induced seizure at 100 mg/kg, ip after 0.5 hrs by 6 Hz psychomotor test", "format": "functional"}, "[8]": {"system": "Mus musculus", "assay": "Protection index, ratio of TD50 for motor impairment in ip dosed albino CD1 mouse to ED50 for protection against subcutaneous pentylenetetrazole-induced seizures in ip dosed albino CD1 mouse"}, "[9]": {"system": "Mus musculus", "assay": "Anticonvulsant activity in ip dosed albino CD1 mouse assessed as protection against subcutaneous pentylenetetrazole-induced seizures", "format": "functional"}, "[10]": {"system": "Mus musculus", "assay": "Protection index, ratio of TD50 for motor impairment in ip dosed albino CD1 mouse to ED50 for protection against 32 mA current-induced seizure in ip dosed albino CD1 mouse by 6 Hz psychomotor test"}, "[11]": {"system": "Mus musculus", "assay": "Protection index, ratio of TD50 for motor impairment in ip dosed albino CD1 mouse to ED50 for protection against maximal electroshock-induced seizures in ip dosed albino CD1 mouse"}, "[12]": {"system": "Mus musculus", "assay": "Anticonvulsant activity in ip dosed albino CD1 mouse assessed as minimum dose required to protect maximal electroshock-induced seizures in half and more mouse measured after 0.5 hrs", "format": "functional"}, "[13]": {"organism": "Homo sapiens", "assay": "Inhibition of N-type calcium channel (unknown origin)"}, "[14]": {"system": "Mus musculus", "assay": "Anticonvulsant activity in ip dosed albino CD1 mouse assessed as minimum dose required to protect subcutaneous pentylenetetrazole-induced seizures in half and more mouse measured after 4 hrs", "format": "functional"}, "[15]": {"system": "Mus musculus", "assay": "Anticonvulsant activity in ip dosed albino CD1 mouse assessed as protection against 32 mA current-induced seizure by 6 Hz psychomotor test", "format": "functional"}, "[16]": {"system": "Mus musculus", "assay": "Anticonvulsant activity in ip dosed albino CD1 mouse assessed as protection against maximal electroshock-induced seizures", "format": "functional"}, "[17]": {"system": "Mus musculus", "assay": "Neurotoxicity in ip dosed albino CD1 mouse assessed as minimum dose required to induce motor impairment in half and more mouse measured after 4 hrs by rotarod test", "format": "toxicity, organism-based", "settings": "in vivo"}, "[18]": {"system": "Mus musculus", "assay": "Anticonvulsant activity in albino CD1 mouse assessed as protection against maximal electroshock-induced seizures at 300 mg/kg, ip measured after 4 hrs", "format": "functional, organism-based"}}, "note": "Activity calls are given as the source filed them. The rule behind the calls is not given here."}
{"smiles": "O=C1CC(C(c2ccccc2)c2ccccc2)C(=O)N1CN1CCOCC1", "note": "(stereo not drawn)", "values": [{"measurement": "TD50", "setting": "[1]", "value": 254, "unit": "mg/kg"}, {"measurement": "Time", "setting": "[2]", "value": 0.5, "unit": "h"}, {"measurement": "inhibition", "setting": "[3]", "value": 29.9, "unit": "%"}, {"measurement": "Time", "setting": "[4]", "value": 4, "unit": "h"}, {"measurement": "Activity", "setting": "[5]", "value": "inactive"}, {"measurement": "Activity", "setting": "[6]", "value": 300, "unit": "mg/kg"}, {"measurement": "Activity", "setting": "[7]", "value": 100, "unit": "%"}, {"measurement": "Ratio TD50/ED50", "setting": "[8]", "value": 2.5}, {"measurement": "ED50", "setting": "[9]", "value": 102, "unit": "mg/kg"}, {"measurement": "Ratio TD50/ED50", "setting": "[10]", "value": 5.59}, {"measurement": "Ratio TD50/ED50", "setting": "[11]", "value": 6.2}, {"measurement": "Activity", "setting": "[12]", "value": 100, "unit": "mg/kg"}, {"measurement": "inhibition", "setting": "[13]", "value": "inactive"}, {"measurement": "Activity", "setting": "[14]", "value": 100, "unit": "mg/kg"}, {"measurement": "ED50", "setting": "[15]", "value": 45.4, "unit": "mg/kg"}, {"measurement": "ED50", "setting": "[16]", "value": 41, "unit": "mg/kg"}, {"measurement": "Activity", "setting": "[17]", "value": 300, "unit": "mg/kg"}, {"measurement": "Activity", "setting": "[18]", "value": "inactive"}]}
